# From patent US20140079636A1, “TARGETED THERAPEUTICS” (priority 2012, published 2014)
# System: HER2
# Test: Her2 degradation assay with BT-474 cell line (Example 12, FACS)
# Type: cell-based, human
# Details: BT-474 cells
# Description: HER2 has emerged as a key target for anticancer drugs due to its intrinsic involvement in the phosphatidylinositol-3-kinase-Akt/proteinkinase B (PI3K-Akt) and the mitogen-activated protein kinase (MAPK) pathways, both of which suppress apoptosis and promote tumor cell survival, gene transcription, angiogenesis, cellular proliferation, migration, mitosis, and differentiation. The degradation of HER2 is a measure of efficacy of anticancer therapeutics that target Hsp90. Accordingly, the SDC-TRAP molecules of the invention that comprise a binding moiety that binds Hsp90 were tested in the following HER2 degradation assay.
# BT-474 cells (human breast cancer cell line ATCC HTB-20) were obtained from ATCC and seeded into 12-well tissue culture plates at 0.2×10^6/1.8 mL/well. […] Each test compound was titrated in 4-fold dilutions from 5 μM to 78 nM with DMSO and 200 μL of the titration was added to each well of the cell plate. The DMSO final concentration was 0.2%. Cells were incubated overnight at 37° C. in 5% CO2.
# Media was decanted from the plate, cells were washed 1× in PBS. 400 μL trypsin (EDTA) per well was added and the cells were incubated for 2 to 3 minutes. […] The cytometer readout was normalized and the potency of each compound is evaluated with IC50 calculated with XL Fit software.
row,SMILES,IC50 [nM]
1,CC(C)c1cc(-c2nnc(O)n2-c2ccc(CN3CCN(C(=O)CCn4cc(F)c(=O)[nH]c4=O)CC3)cc2)c(O)cc1O [SDC-TRAP-0049],> 5000

# System: not listed separately
# Test: Tissue distribution of ganetespib in female CD-1 nu/nu mice bearing RERF human NSCLC xenografts
# Type: in vivo, mouse
# Details: 5 min time point
# Method: Tissue Distribution of ganetespib in Female CD-1 nu/nu Mice Bearing RERF Human NSCLC Xenografts
# To confirm the distribution of ganetespib in blood, livers, kidneys, brains, hearts, lungs and tumors after IV administration of ganetespib to female CD-1 nu/nu mice bearing RERF human NSCLC xenografts, and to examine metabolic profiles of ganetespib in plasma, red blood cells, and above tissues.
# Animals: female CD-1 nu/nu mice bearing RERF human NSCLC xenografts (N=3/group)
# Dosage: 50 mg/kg Dose level: 10 mL/kg Formulation: 10% DMSO, 18% Cremophor RH40, 3.6% dextrose solution (DRD) Bleeding time points: 5 min, 6, 24 hr Collected tissues: blood (plasma and red blood cells (RBC)), liver, kidneys, brain, heart, lung, tumor
# Protein precipitation: 50 μL of 10 times diluted plasma or RBC+150 μL ACN (10 mM NH4OAc), vortexed and centrifuged at 10000 rpm for 8 min; 150 μL supernatant+150 μL water (10 mM NH4OAc)
# Protein precipitation: 100 μL homogenized tissue (1:3 tissue:PBS buffer)+100 μL ACN (10 mM NH4OAc), vortexed and centrifuged at 10000 rpm for 8 min
row,Mean concentration in plasma relative to RBC (times higher),SMILES
1,about 10,CC(C)c1cc(-c2n[nH]c(=O)n2-c2ccc3c(ccn3C)c2)c(O)cc1O [ganetespib]

# Molecular target: T1, Hsp90α (Homo sapiens, UniProt P07900)
# T1 construct: purchased BPS Bioscience 50294
# Test: Hsp90α binding assay (fluorescence polarization, FITC-labeled geldanamycin)
# Details: read-out: Hsp90 binding EC50
# Method: An Hsp90^α fluorescence assay kit from BPS Bioscience (Cat #50294) containing Hsp90 recombinant enzyme, FITC-labeled geldanamycin, assay buffer and a low binding 384-well plate was used to assay Hsp90^α binding. Dithiothreitol (DTT)(Cat #D0643) and bovine serum albumin (BSA)(Cat #A2153) were obtained from Sigma-Aldrich. Fluorescence polarization was measured using a PHERAstar microplate reader from BMG LABTECH GmbH, Ortenherg, Germany.
# The compounds were diluted to 1 mM in DMSO and loaded into a compound dilution plate to make 3-fold dilutions yielding a total of 8 concentrations. 1 µL of compound was transferred from the dilution plate to the low binding assay plate provided in the assay kit. 5 mL of Hsp90^□ binding solution was prepared having a final concentration of 7 ng/µL Hsp90^□, 5 nM FITC-labeled geldanamycin, 2 mM DTT and 0.1 mg/mL BSA. 49 μL of binding solution was added to each microplate well, incubated at room temperature for 1 hour, then read using the PHERAstar microplate reader. The high control sample contained no compound plus Hsp90^α; the low control sample contained no compound and no Hsp90^α. […] The IC50 was calculated using GraphPad Prism 4 software.
row,SMILES,EC50 [nM]
1,"CCc1c2c(nc3ccc(OC(=O)N4CCN(c5ccc(-n6c(O)nnc6-c6cc(C(C)C)c(O)cc6O)cc5)CC4)cc13)-c1cc3c(c(=O)n1C2)COC(=O)C3(O)CC (stereo not drawn) [SDC-TRAP-0045, 4,11-diethyl-4-hydroxy-3,14-dioxo-3,4,12,14-tetrahydro-1H-pyrano[3′,4′:6,7]indolizino[1,2-b]quinolin-9-yl 4-(4-(3-(2,4-dihydroxy-5-isopropylphenyl)-5-hydroxy-4H-1,2,4-triazol-4-yl)phenyl)piperazine-1-carboxylate]",96.6
2,"CCc1c2c(nc3ccc(OC(=O)N4CCN(Cc5ccc(-n6c(O)nnc6-c6cc(C(C)C)c(O)cc6O)cc5)CC4)cc13)-c1cc3c(c(=O)n1C2)COC(=O)C3(O)CC (stereo not drawn) [SDC-TRAP-0046, 4,11-diethyl-4-hydroxy-3,14-dioxo-3,4,12,14-tetrahydro-1H-pyrano[3′,4′:6,7]indolizino[1,2-b]quinolin-9-yl 4-(4-(3-(2,4-dihydroxy-5-isopropylphenyl)-5-hydroxy-4H-1,2,4-triazol-4-yl)benzyl)piperazine-1-carboxylate]",102
3,"CCc1c2c(nc3ccc(OC(=O)N4CCC(CCn5ccc6cc(-n7c(O)nnc7-c7cc(C(C)C)c(O)cc7O)ccc65)CC4)cc13)-c1cc3c(c(=O)n1C2)COC(=O)[C@]3(O)CC [SDC-TRAP-0063, 4,11-diethyl-4-hydroxy-3,14-dioxo-3,4,12,14-tetrahydro-1H-pyrano[3′,4′:6,7]indolizino[1,2-b]quinolin-9-yl 4-(2-(5-(3-(2,4-dihydroxy-5-isopropylphenyl)-5-hydroxy-4H-1,2,4-triazol-4-yl)-1H-indol-1-yl)ethyl)piperidine-1-carboxylate]",157
4,"CCc1c2c(nc3ccc(O)cc13)-c1cc3c(c(=O)n1C2)COC(=O)[C@@]3(CC)OC(=O)N1CCC(CCn2ccc3cc(-n4c(O)nnc4-c4cc(C(C)C)c(O)cc4O)ccc32)CC1 [SDC-TRAP-0064, (S)-4,11-diethyl-9-hydroxy-3,14-dioxo-3,4,12,14-tetrahydro-1H-pyrano[3′,4′:6,7]indolizino[1,2-b]quinolin-4-yl 4-(2-(5-(3-(2,4-dihydroxy-5-isopropylphenyl)-5-hydroxy-4H-1,2,4-triazol-4-yl)-1H-indol-1-yl)ethyl)piperidine-1-carboxylate]",122
5,"COc1cc(O)c(-c2nnc(C(=O)NC(C)C)n2-c2ccc(CN3CCC(C(=O)Nc4cccc5c4CN(C4CCC(=O)NC4=O)C5=O)CC3)cc2)cc1C(C)C (stereo not drawn) [SDC-TRAP-0115, N-(2-(2,6-dioxopiperidin-3-yl)-1-oxoisoindolin-4-yl)-1-(4-(3-(2-hydroxy-5-isopropyl-4-methoxyphenyl)-5-(isopropylcarbamoyl)-4H-1,2,4-triazol-4-yl)benzyl)piperidine-4-carboxamide]",203
6,"CC(C)c1cc(-c2nnc(O)n2-c2ccc(CC3CCN(CC(=O)Nc4cccc5c4CN(C4CCC(=O)NC4=O)C5=O)CC3)cc2)c(O)cc1O (stereo not drawn) [SDC-TRAP-0116, 2-(4-(4-(3-(2,4-dihydroxy-5-isopropylphenyl)-5-hydroxy-4H-1,2,4-triazol-4-yl)benzyl)piperidin-1-yl)-N-(2-(2,6-dioxopiperidin-3-yl)-1-oxoisoindolin-4-yl)acetamide]",159
7,"CC(C)c1cc(-c2nnc(O)n2-c2ccc(CC(=O)N(C)CCOC(=O)Nc3cccc4c3CN(C3CCC(=O)NC3=O)C4=O)cc2)c(O)cc1O (stereo not drawn) [SDC-TRAP-0127, 2-(2-(4-(3-(2,4-dihydroxy-5-isopropylphenyl)-5-hydroxy-4H-1,2,4-triazol-4-yl)phenyl)-N-methylacetamido)ethyl(2-(2,6-dioxopiperidin-3-yl)-1-oxoisoindolin-4-yl)carbamate]",102
8,"CCNC(=O)c1nnc(-c2cc(C(C)C)c(O)cc2O)n1-c1ccc(CN2CCC(C(=O)N3CCC(n4cc(-c5cnc(N)c(O[C@H](C)c6c(Cl)ccc(F)c6Cl)c5)cn4)CC3)CC2)cc1 [SDC-TRAP-0134, (R)-4-(4-((4-(4-(4-(6-amino-5-(1-(2,6-dichloro-3-fluorophenyl)ethoxy)pyridin-3-yl)-1H-pyrazol-1-yl)piperidine-1-carbonyl)piperidin-1-yl)methyl)phenyl)-5-(2,4-dihydroxy-5-isopropylphenyl)-N-ethyl-4H-1,2,4-triazole-3-carboxamide]",95.4
9,"CCNC(=O)c1nnc(-c2cc(C(C)C)c(O)cc2O)n1-c1ccc(CN2CCC(C(=O)N3CCC(C(=O)N[C@H]4C[C@H](O[C@H]5C[C@](O)(C(=O)CO)Cc6c(O)c7c(c(O)c65)C(=O)c5c(OC)cccc5C7=O)O[C@@H](C)[C@H]4O)CC3)CC2)cc1 [SDC-TRAP-0198, 1-(1-(4-(3-(2,4-dihydroxy-5-isopropylphenyl)-5-(ethylcarbamoyl)-4H-1,2,4-triazol-4-yl)benzyl)piperidine-4-carbonyl)-N-((2S,3S,4S,6R)-3-hydroxy-2-methyl-6-(((1S,3S)-3,5,12-trihydroxy-3-(2-hydroxyacetyl)-10-methoxy-6,11-dioxo-1,2,3,4,6,11-hexahydrotetracen-1-yl)oxy)tetrahydro-2H-pyran-4-yl)piperidine-4-carboxamide]",93.3
10,"CCc1c2c(nc3ccc(OC(=O)N4CCC[C@H]4C(=O)N4CCN(c5ccc(-n6c(O)nnc6-c6cc(C(C)C)c(O)cc6O)cc5)CC4)cc13)-c1cc3c(c(=O)n1C2)COC(=O)[C@]3(O)CC [SDC-TRAP-0204, (S)—(S)-4,11-diethyl-4-hydroxy-3,14-dioxo-3,4,12,14-tetrahydro-1H-pyrano[3′,4′:6,7]indolizino[1,2-b]quinolin-9-yl 2-(4-(4-(3-(2,4-dihydroxy-5-isopropylphenyl)-5-hydroxy-4H-1,2,4-triazol-4-yl)phenyl)piperazine-1-carbonyl)pyrrolidine-1-carboxylate]",82.6
11,CCNC(=O)c1nnc(-c2cc(C(C)C)c(O)cc2O)n1-c1ccc(OC2CCN(C(=O)[C@@H]3CCCN3C(=O)Oc3ccc4nc5c(c(CC)c4c3)Cn3c-5cc4c(c3=O)COC(=O)[C@]4(O)CC)CC2)cc1 [SDC-TRAP-0209],54.6
12,CCc1c2c(nc3ccc(OC(=O)N4CCC[C@H]4C(=O)N4CCC(CCn5ccc6cc(-n7c(O)nnc7-c7cc(C(C)C)c(O)cc7O)ccc65)CC4)cc13)-c1cc3c(c(=O)n1C2)COC(=O)[C@]3(O)CC [SDC-TRAP-0210],91

# System: MCF-7 breast cancer cells
# Test: Mouse xenograft efficacy in an MCF-7 breast cancer model
# Type: in vivo
# Details: 150 or 100 mg/kg/1×wk IV, versus irinotecan alone or ganetespib + irinotecan
# Method: MCF-7 breast cancer cells were purchased from ATCC. […] Fetal bovine serum was then be added to the medium. The final concentration of fetal bovine serum was 10%. Cells were cultured at 37° C. and 5% CO2.
# Mice that were not put on treatment were euthanized. Animals were sourced through CRL (Wilmington, Mass.).
row,SMILES,Tumor growth suppression (tumor volume)
1,"CCc1c2c(nc3ccc(OC(=O)N4CCC(CCn5ccc6cc(-n7c(O)nnc7-c7cc(C(C)C)c(O)cc7O)ccc65)CC4)cc13)-c1cc3c(c(=O)n1C2)COC(=O)[C@]3(O)CC [SDC-TRAP-0063, 4,11-diethyl-4-hydroxy-3,14-dioxo-3,4,12,14-tetrahydro-1H-pyrano[3′,4′:6,7]indolizino[1,2-b]quinolin-9-yl 4-(2-(5-(3-(2,4-dihydroxy-5-isopropylphenyl)-5-hydroxy-4H-1,2,4-triazol-4-yl)-1H-indol-1-yl)ethyl)piperidine-1-carboxylate]",greater tumor growth suppression than effector moiety irinotecan alone or unconjugated binding moiety ganetespib and effector moiety irinotecan administered together
